Patent publication US20250327074A1 (SHAOXING INSTITUTE, ZHEJIANG UNIVERSITY, priority 2024, published 2025)

Tested on: TCG codon, mammalian cells
Experiment: TCG codon recoding efficiency of all amino acids (Table 1)
Format: cell-based
Details: TCG codon recoding of the unnatural amino acid with the aaRS and mutation of the same table line
From the text: Specific details are shown in Table 1 below, where “wt” represents the wild-type aminoacyl-tRNA synthetase, “mutation sites” indicate the positions and types of mutations related to specific unnatural amino acid binding on the wild-type aminoacyl-tRNA synthetase, and “unnatural amino acid” represents the unnatural amino acid corresponding to the mutated aminoacyl-tRNA synthetase. In the unnatural amino acid encoding efficiency, “+” indicates a recoding efficiency greater than 40%, “++” greater than 60%, and “+++” greater than 80%.
Accordingly, this application compiles all amino acids reported in the literature that are recognized by orthogonal aminoacyl-tRNA synthetases in mammalian systems and evaluates their recoding efficiency using the TCG codon as an example.

SMILES | Recoding rate (%) (class symbols) | Recoding rate (%) (numeric values)
CC(OC(=O)CC(N)C(=O)O)c1ccccc1[N+](=O)[O-] (mixture of isomers) [compound 262] | ++ (“++” greater than 60%) | –
CC(SCC(N)C(=O)O)c1cc2c(cc1[N+](=O)[O-])OCO2 (mixture of isomers) [compound 269] | + (“+” indicates a recoding efficiency greater than 40%) | –
CC(OC(=O)NCSCC(N)C(=O)O)c1cc2c(cc1[N+](=O)[O-])OCO2 (mixture of isomers) [compound 270] | + (“+” indicates a recoding efficiency greater than 40%) | –
CC(OC(=O)NCSCCC(N)C(=O)O)c1cc2c(cc1[N+](=O)[O-])OCO2 (mixture of isomers) [compound 271] | + (“+” indicates a recoding efficiency greater than 40%) | –
CC([Se]CC(N)C(=O)O)c1cc2c(cc1[N+](=O)[O-])OCO2 (mixture of isomers) [compound 275] | + (“+” indicates a recoding efficiency greater than 40%) | –
CC(SCCOC(=O)NCC(N)C(=O)O)c1cc2c(cc1[N+](=O)[O-])OCO2 (mixture of isomers) [compound 276] | + (“+” indicates a recoding efficiency greater than 40%) | –
N[C@@H](Cc1cccc(F)c1F)C(=O)O [compound 228] | – | 80? %
N[C@@H](Cc1cc(F)c(F)cc1F)C(=O)O [compound 229] | – | 83%
N[C@@H](Cc1ccc2ncccc2c1)C(=O)O [compound 230] | + (“+” indicates a recoding efficiency greater than 40%) | –
N[C@@H](Cc1ccc(Oc2ccc(O)cc2)cc1)C(=O)O [compound 231] | ++ (“++” greater than 60%) | –
N[C@@H](Cc1ccccc1[N+](=O)[O-])C(=O)O [compound 232] | – | 72%
N[C@@H](Cc1cccc(C(F)(F)F)c1)C(=O)O [compound 234] | – | 81%
N#Cc1cccc(C[C@H](N)C(=O)O)c1 [compound 235] | – | 74%
N[C@@H](Cc1cccc([N+](=O)[O-])c1)C(=O)O [compound 237] | – | 85%
N[C@@H](Cc1ccc(OCC2CCCC2)cc1)C(=O)O [compound 238] | ++ (“++” greater than 60%) | –
CC#CCOc1ccc(C[C@H](N)C(=O)O)cc1 [compound 239] | ++ (“++” greater than 60%) | –
N[C@@H](Cc1ccc(OCc2ccccc2)cc1)C(=O)O [compound 240] | – | 46%
C=CCOc1ccc(C[C@H](N)C(=O)O)cc1 [compound 241] | – | 83%
C=CCCOc1ccc(C[C@H](N)C(=O)O)cc1 [compound 242] | ++ (“++” greater than 60%) | –
C=CCCCOc1ccc(C[C@H](N)C(=O)O)cc1 [compound 243] | ++ (“++” greater than 60%) | –

SMILES | Recoding rate (%) (class symbols) | Recoding rate (%) (numeric values)
CC(C)(C)Oc1ccc(C[C@H](N)C(=O)O)cc1 [compound 244] | – | 72%
N[C@@H](Cc1cc(Br)ccc1Cl)C(=O)O [compound 245] | – | 75%
N[C@@H](Cc1cc(Cl)ccc1Cl)C(=O)O [compound 246] | – | 84%
N[C@@H](Cc1cccnc1)C(=O)O [compound 247] | – | 83%
N[C@@H](Cc1ccc2c(c1)OCO2)C(=O)O [compound 248] | + (“+” indicates a recoding efficiency greater than 40%) | –
N[C@@H](Cc1ccc2ccccc2c1)C(=O)O [compound 249] | + (“+” indicates a recoding efficiency greater than 40%) | –
N[C@@H](Cc1c[nH]c2c(F)cccc12)C(=O)O [compound 250] | – | 74%
N[C@@H](Cc1c[nH]c2ncccc12)C(=O)O [compound 251] | – | 22%
N[C@@H](Cc1csc2ccccc12)C(=O)O [compound 252] | – | 89%
Cn1cncc1C[C@H](N)C(=O)O [compound 253] | – | 85%
N[C@@H](Cc1cn(Cc2ccccc2[N+](=O)[O-])cn1)C(=O)O [compound 254] | ++ (“++” greater than 60%) | –
N[C@@H](Cc1ccsc1)C(=O)O [compound 256] | – | 64%
N[C@@H](Cc1cncs1)C(=O)O [compound 257] | – | 91%
N[C@@H](Cc1cccs1)C(=O)O [compound 258] | – | 72%
N[C@@H](Cc1ccc(Br)s1)C(=O)O [compound 259] | – | 87%
N[C@@H](Cc1ccco1)C(=O)O [compound 260] | – | 43%
N[C@@H](CC(=O)OCc1ccccc1[N+](=O)[O-])C(=O)O [compound 261] | – | 23%
N[C@@H](CCC(=O)OCc1ccccc1[N+](=O)[O-])C(=O)O [compound 263] | + (“+” indicates a recoding efficiency greater than 40%) | –
N[C@@H](CCC(=O)OCc1cc2c(cc1[N+](=O)[O-])OCO2)C(=O)O [compound 264] | ++ (“++” greater than 60%) | –
N[C@@H](CCC(=O)OCc1ccccc1)C(=O)O [compound 265] | ++ (“++” greater than 60%) | –

SMILES | Recoding rate (%) (class symbols) | Recoding rate (%) (numeric values)
N[C@@H](CC(=O)OCc1ccccc1)C(=O)O [compound 266] | – | 75%
N[C@@H](CC(=O)SCCNC(=O)OC1CCCC1)C(=O)O [compound 267] | ++ (“++” greater than 60%) | –
N[C@@H](CSCc1ccccc1[N+](=O)[O-])C(=O)O [compound 268] | + (“+” indicates a recoding efficiency greater than 40%) | –
C=CC[Se]C[C@H](N)C(=O)O [compound 272] | + (“+” indicates a recoding efficiency greater than 40%) | –
C#CCSC[C@H](N)C(=O)O [compound 273] | + (“+” indicates a recoding efficiency greater than 40%) | –
N[C@@H](CCSCNC(=O)Cc1ccccc1)C(=O)O [compound 274] | ++ (“++” greater than 60%) | –
N[C@@H](Cc1ccc2c(c1)C(=O)C1C=CC=CC1N2)C(=O)O (stereo partly drawn) [compound 277] | – | 63%
CN(C)c1ccc(-c2oc(N)nc2C(=O)O)cc1 [compound 279] | ++ (“++” greater than 60%) | –
C=CCSC[C@H](N)C(=O)O [compound 280] | + (“+” indicates a recoding efficiency greater than 40%) | –
CCCSC(=O)CCC(=O)NCCCC[C@H](N)C(=O)O [compound 283] | – | 55%
CCCSC(=O)CCCC(=O)NCCCC[C@H](N)C(=O)O [compound 284] | – | 57%
N[C@@H](Cc1c[nH]c2c3c(ccc12)OCC3)C(=O)O [compound 285] | ++ (“++” greater than 60%) | –
N[C@@H](Cc1cccc(I)c1)C(=O)O [compound 286] | – | 61%
N[C@@H](Cc1ccc(OS(=O)(=O)F)cc1)C(=O)O [compound 287] | +++ (“+++” greater than 80%) | –
CN(C)c1cccc(C[C@H](N)C(=O)O)c1 [compound 288] | +++ (“+++” greater than 80%) | –
N[C@@H](Cc1cccc(N2CCCC2)c1)C(=O)O [compound 289] | ++ (“++” greater than 60%) | –
Cc1ccc2c(C[C@H](N)C(=O)O)c[nH]c2c1 [compound 290] | – | 76%
N[C@@H](Cc1c[nH]c2cc(Cl)ccc12)C(=O)O [compound 291] | – | 73%
N[C@@H](Cc1c[nH]c2cc(Br)ccc12)C(=O)O [compound 292] | – | 73%
N#Cc1ccc2c(C[C@H](N)C(=O)O)c[nH]c2c1 [compound 293] | – | 84%
